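48-hour exposure; five concentrations; linearly interpolated endpoints. TGI denotes the concentration required for complete inhibition of growth.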
What was measured:
Experiment in all cases: NCI-60 cell line screen, 48 h
[1] = test system: 786-0 renal
[2] = test system: A549 NSCLC
[3] = test system: ACHN renal
[4] = test system: BT-549 breast
[5] = test system: CAKI-1 renal
[6] = test system: CCRF-CEM leukemia
[7] = test system: COLO 205 colon
[8] = test system: DU-145 prostate
[9] = test system: EKVX NSCLC
[10] = test system: HCC-2998 colon
[11] = test system: HCT-116 colon
[12] = test system: HCT-15 colon
[13] = test system: HL-60(TB) leukemia
[14] = test system: HOP-92 NSCLC
[15] = test system: HS 578T breast
[16] = test system: HT29 colon
[17] = test system: IGROV1 ovarian
[18] = test system: K-562 leukemia
[19] = test system: KM12 colon
[20] = test system: LOX IMVI melanoma
[21] = test system: M14 melanoma
[22] = test system: MALME-3M melanoma
[23] = test system: MCF7 breast
[24] = test system: MDA-MB-231 breast
[25] = test system: MDA-MB-435
[26] = test system: MDA-N
[27] = test system: MOLT-4 leukemia
[28] = test system: NCI-H226 lung
[29] = test system: NCI-H23 lung
[30] = test system: NCI-H460 lung
[31] = test system: NCI-H522 lung
[32] = test system: NCI/ADR-RES ovarian
[33] = test system: OVCAR-3 ovarian
[34] = test system: OVCAR-4 ovarian
[35] = test system: OVCAR-5 ovarian
[36] = test system: OVCAR-8 ovarian
[37] = test system: PC-3 prostate
[38] = test system: RPMI-8226 leukemia
[39] = test system: SF-268 CNS
[40] = test system: SF-295 CNS
[41] = test system: SF-539 CNS
[42] = test system: SK-MEL-2 melanoma
[43] = test system: SK-MEL-28 melanoma
[44] = test system: SK-MEL-5 melanoma
[45] = test system: SK-OV-3 ovarian
[46] = test system: SN12C renal
[47] = test system: SNB-19 CNS
[48] = test system: SNB-75 CNS
[49] = test system: SR leukemia
[50] = test system: SW-620 colon
[51] = test system: T-47D breast
[52] = test system: TK-10 renal
[53] = test system: U251 CNS
[54] = test system: UACC-257 melanoma
[55] = test system: UACC-62 melanoma
[56] = test system: UO-31 renal
[57] = test system: A498 renal
[58] = test system: HOP-62 NSCLC
[59] = test system: RXF 393 renal

C/C(=N\NC(=O)Nc1ccccc1Cl)c1ccc(O)cc1
TGI [1]: > 100 µM
TGI [2]: > 100 µM
TGI [3]: > 100 µM
TGI [4]: > 100 µM
TGI [5]: > 100 µM
TGI [6]: > 100 µM
TGI [7]: > 100 µM
TGI [8]: > 100 µM
TGI [9]: > 100 µM
TGI [10]: > 100 µM
TGI [11]: > 100 µM
TGI [12]: > 100 µM
TGI [13]: > 100 µM
TGI [14]: > 100 µM
TGI [15]: > 100 µM
TGI [16]: > 100 µM
TGI [17]: > 100 µM
TGI [18]: > 100 µM
TGI [19]: > 100 µM
TGI [20]: > 100 µM
TGI [21]: > 100 µM
TGI [22]: > 100 µM
TGI [23]: > 100 µM
TGI [24]: > 100 µM
TGI [25]: > 100 µM
TGI [26]: > 100 µM
TGI [27]: > 100 µM
TGI [28]: > 100 µM
TGI [29]: > 100 µM
TGI [30]: > 100 µM
TGI [31]: > 100 µM
TGI [32]: > 100 µM
TGI [33]: > 100 µM
TGI [34]: > 100 µM
TGI [35]: > 100 µM
TGI [36]: > 100 µM
TGI [37]: > 100 µM
TGI [38]: > 100 µM
TGI [39]: > 100 µM
TGI [40]: > 100 µM
TGI [41]: > 100 µM
TGI [42]: > 100 µM
TGI [43]: > 100 µM
TGI [44]: > 100 µM
TGI [45]: > 100 µM
TGI [46]: > 100 µM
TGI [47]: > 100 µM
TGI [48]: 75.8 µM
TGI [49]: > 100 µM
TGI [50]: > 100 µM
TGI [51]: > 100 µM
TGI [52]: > 100 µM
TGI [53]: > 100 µM
TGI [54]: > 100 µM
TGI [55]: > 100 µM
TGI [56]: > 100 µM

COC(OC)(c1ccccc1)C(Br)Br
TGI [1]: 69.4 µM
TGI [57]: > 100 µM
TGI [2]: > 100 µM
TGI [3]: > 100 µM
TGI [4]: > 100 µM
TGI [5]: 48.5 µM
TGI [6]: 42.6 µM
TGI [7]: 39.2 µM
TGI [8]: > 100 µM
TGI [9]: > 100 µM
TGI [10]: > 100 µM
TGI [11]: 37.2 µM
TGI [12]: 42.4 µM
TGI [13]: > 100 µM
TGI [58]: > 100 µM
TGI [15]: > 100 µM
TGI [16]: > 100 µM
TGI [17]: > 100 µM
TGI [18]: 71.6 µM
TGI [19]: > 100 µM
TGI [20]: > 100 µM
TGI [21]: 37.8 µM
TGI [22]: 43.8 µM
TGI [23]: > 100 µM
TGI [24]: > 100 µM
TGI [25]: > 100 µM
TGI [26]: > 100 µM
TGI [27]: 74.2 µM
TGI [28]: > 100 µM
TGI [29]: > 100 µM
TGI [30]: > 100 µM
TGI [31]: 33 µM
TGI [32]: > 100 µM
TGI [33]: > 100 µM
TGI [35]: > 100 µM
TGI [36]: > 100 µM
TGI [37]: > 100 µM
TGI [38]: > 100 µM
TGI [39]: > 100 µM
TGI [40]: > 100 µM
TGI [42]: > 100 µM
TGI [43]: > 100 µM
TGI [44]: > 100 µM
TGI [45]: > 100 µM
TGI [46]: > 100 µM
TGI [47]: > 100 µM
TGI [48]: > 100 µM
TGI [49]: 70.6 µM
TGI [50]: 34.5 µM
TGI [51]: > 100 µM
TGI [53]: > 100 µM
TGI [54]: > 100 µM
TGI [55]: > 100 µM
TGI [56]: > 100 µM

NC(N)=NS(=O)(=O)c1ccc(Nc2c3ccccc3nc3c(C(=O)NNCCO)cccc23)cc1
TGI [1]: > 1 µM
TGI [57]: > 1 µM
TGI [2]: > 1 µM
TGI [3]: > 1 µM
TGI [4]: 0.303 µM
TGI [5]: 0.912 µM
TGI [6]: > 1 µM
TGI [7]: 0.351 µM
TGI [8]: > 1 µM
TGI [9]: > 1 µM
TGI [10]: 0.462 µM
TGI [11]: 0.354 µM
TGI [12]: > 1 µM
TGI [13]: 0.671 µM
TGI [58]: 0.536 µM
TGI [14]: > 1 µM
TGI [15]: > 1 µM
TGI [16]: 0.933 µM
TGI [17]: 0.434 µM
TGI [18]: 0.422 µM
TGI [19]: 0.287 µM
TGI [20]: 0.375 µM
TGI [21]: 0.456 µM
TGI [22]: 0.273 µM
TGI [23]: 0.241 µM
TGI [24]: 0.731 µM
TGI [25]: 0.446 µM
TGI [26]: 0.504 µM
TGI [27]: > 1 µM
TGI [28]: 0.42 µM
TGI [29]: 0.28 µM
TGI [30]: 0.341 µM
TGI [31]: 0.28 µM
TGI [32]: > 1 µM
TGI [33]: 0.269 µM
TGI [34]: > 1 µM
TGI [35]: > 1 µM
TGI [36]: > 1 µM
TGI [37]: > 1 µM
TGI [38]: 0.42 µM
TGI [59]: 0.756 µM
TGI [39]: 0.307 µM
TGI [40]: > 1 µM
TGI [41]: > 1 µM
TGI [42]: 0.311 µM
TGI [43]: > 1 µM
TGI [44]: 0.278 µM
TGI [45]: > 1 µM
TGI [46]: > 1 µM
TGI [47]: > 1 µM
TGI [50]: 0.377 µM
TGI [51]: 0.296 µM
TGI [52]: > 1 µM
TGI [53]: 0.269 µM
TGI [54]: > 1 µM
TGI [55]: > 1 µM
TGI [56]: > 1 µM

— PubChem BioAssay (NCI)
